Experimental data published in the NIST ThermoML archive (doi:10.1016/j.fluid.2014.01.013).
± gives the expanded uncertainty stated by the source.

Settings: 298.15 K; 101.33 kPa; Liquid; Vibrating tube method
In the case of `CCCCCCCCCC` [decane], the mass density is reported as 726.43 ± 0.25 kg/m3. In the case of `CCCCCCCCCCCCCCCC` [hexadecane], the mass density is reported as 770.21 ± 0.24 kg/m3. `CCCCCCCCCCCCCC` [tetradecane] gave a mass density of 759.27 ± 0.24 kg/m3. `CCCCCCCCCCCC` [dodecane] showed a mass density of 741.54 ± 0.58 kg/m3. With `O=Cc1ccccc1` [benzaldehyde] the mass density was 1042.94 ± 0.26 kg/m3.
